The subject of the test is BDF1 mice, M5076 sarcoma s.c., survival/tumor T/C. As to the kind of experiment: NCI In Vivo Anticancer Drug Screen. Data for tumor model Sarcoma M5076 (subcutaneous) in B6D2F1 (BDF1) mice. As to the method: The antitumor activity of compounds was measured in mice bearing transplantable tumors. Survival or tumor size were measured and the results are expressed as the measurement made in the treated group (T) divided by the measurement made in the vehicle treated control group (C). The tumor model used in this assay is Sarcoma M5076 (subcutaneous) in B6D2F1 (BDF1) mice

Where [1] appears, read: endpoint: median survival time, dose: 50.0 mg/kg/injection, schedule: Q01DX009 (ip), vehicle: saline with Tween-80, higher = longer survival.
Setting [2] is: endpoint: median survival time, dose: 100.0 mg/kg/injection, schedule: Q01DX009 (ip), vehicle: saline with Tween-80, higher = longer survival.
Where [3] appears, read: endpoint: median tumor weight (est.), dose: 50.0 mg/kg/injection, schedule: Q01DX009 (ip), vehicle: saline with Tween-80, higher = larger tumour.
The mark [4] stands for this setting: endpoint: median tumor weight (est.), dose: 100.0 mg/kg/injection, schedule: Q01DX009 (ip), vehicle: saline with Tween-80, higher = larger tumour.
[5] abbreviates: endpoint: median survival time, dose: 200.0 mg/kg/injection, schedule: Q01DX009 (ip), vehicle: saline with Tween-80, higher = longer survival.
Where [6] appears, read: endpoint: median tumor weight (est.), dose: 200.0 mg/kg/injection, schedule: Q01DX009 (ip), vehicle: saline with Tween-80, higher = larger tumour.

Molecules are shown by their SMILES. Several values for one entry are separate records, joined by “and”; a condition that tells them apart may be missing. Equal entries are not always repeated. Records with an inconclusive call do not appear.

For `NCCc1ccc(O)c(O)c1`, the T/C reads like this: (endpoint: mean tumor weight, dose: 25.0 mg/kg/injection, schedule: Q02DX011 (ip), vehicle: saline, higher = larger tumour) 53 % of control; (endpoint: mean tumor weight, dose: 50.0 mg/kg/injection, schedule: Q02DX011 (ip), vehicle: saline, higher = larger tumour) 57 % of control; (endpoint: mean tumor weight, dose: 100.0 mg/kg/injection, schedule: Q02DX011 (ip), vehicle: saline, higher = larger tumour) 62 % of control; (endpoint: mean tumor weight, dose: 200.0 mg/kg/injection, schedule: Q02DX011 (ip), vehicle: saline, higher = larger tumour) 45 % of control; (endpoint: mean tumor weight, dose: 400.0 mg/kg/injection, schedule: Q02DX011 (ip), vehicle: saline, higher = larger tumour) 76 % of control; (endpoint: mean tumor weight, dose: 800.0 mg/kg/injection, schedule: Q02DX011 (ip), vehicle: saline, higher = larger tumour) 95 % of control. The T/C is, setting by setting: (endpoint: median survival time, dose: 12.5 mg/kg/injection, schedule: Q02DX030 (ip), vehicle: saline, higher = longer survival) 114 % of control; (endpoint: median survival time, dose: 25.0 mg/kg/injection, schedule: Q02DX030 (ip), vehicle: saline, higher = longer survival) 99 % of control; (endpoint: median survival time, dose: 50.0 mg/kg/injection, schedule: Q02DX030 (ip), vehicle: saline, higher = longer survival) 91 % of control; (endpoint: median survival time, dose: 100.0 mg/kg/injection, schedule: Q02DX030 (ip), vehicle: saline, higher = longer survival) 100 % of control; (endpoint: median survival time, dose: 200.0 mg/kg/injection, schedule: Q02DX030 (ip), vehicle: saline, higher = longer survival) 93 % of control; (endpoint: median survival time, dose: 800.0 mg/kg/injection, schedule: Q02DX030 (ip), vehicle: saline, higher = longer survival) 91 % of control. The T/C was 58 % of control (endpoint: median tumor weight (est.), dose: 25.0 mg/kg/injection, schedule: Q02DX011 (ip), vehicle: saline, higher = larger tumour); 59 % of control (endpoint: median tumor weight (est.), dose: 50.0 mg/kg/injection, schedule: Q02DX011 (ip), vehicle: saline, higher = larger tumour); 80 % of control (endpoint: median tumor weight (est.), dose: 100.0 mg/kg/injection, schedule: Q02DX011 (ip), vehicle: saline, higher = larger tumour); 62 % of control (endpoint: median tumor weight (est.), dose: 200.0 mg/kg/injection, schedule: Q02DX011 (ip), vehicle: saline, higher = larger tumour); 66 % of control (endpoint: median tumor weight (est.), dose: 400.0 mg/kg/injection, schedule: Q02DX011 (ip), vehicle: saline, higher = larger tumour); 77 % of control (endpoint: median tumor weight (est.), dose: 800.0 mg/kg/injection, schedule: Q02DX011 (ip), vehicle: saline, higher = larger tumour). Also, the T/C reads like this: (endpoint: median tumor weight change, dose: 12.5 mg/kg/injection, schedule: Q02DX006 (ip), vehicle: saline, higher = larger tumour) 86 % of control; (endpoint: median tumor weight change, dose: 25.0 mg/kg/injection, schedule: Q02DX006 (ip), vehicle: saline, higher = larger tumour) 93 % of control; (endpoint: median tumor weight change, dose: 50.0 mg/kg/injection, schedule: Q02DX006 (ip), vehicle: saline, higher = larger tumour) 112 % of control; (endpoint: median tumor weight change, dose: 100.0 mg/kg/injection, schedule: Q02DX006 (ip), vehicle: saline, higher = larger tumour) 103 % of control; (endpoint: median tumor weight change, dose: 200.0 mg/kg/injection, schedule: Q02DX006 (ip), vehicle: saline, higher = larger tumour) 105 % of control; (endpoint: median tumor weight change, dose: 400.0 mg/kg/injection, schedule: Q02DX006 (ip), vehicle: saline, higher = larger tumour) 99 % of control. Moreover, the T/C (endpoint: median tumor weight change, dose: 800.0 mg/kg/injection, schedule: Q02DX006 (ip), vehicle: saline, higher = larger tumour) was 101 % of control.

For `OCCNCCN=C1CCC(=NCCNCCO)CC1`, the T/C reads like this: under setting [1], 100 % of control; under setting [2], 100 % of control; under setting [3], 105 % of control; under setting [4], 112 % of control.

In the case of `COc1cc(/C=N/NC(=O)COCC(=O)N/N=C/c2ccc(O)cc2OC)ccc1O`, the T/C under setting [1] was 94 % of control; the T/C under setting [2] is 86 % of control; the T/C under setting [5] is 91 % of control; the T/C under setting [3] is 116 % of control; the T/C under setting [4] was 122 % of control; the T/C under setting [6] was 122 % of control.

Turning to `O=C1c2c(O)ccc(O)c2C(=O)c2c(NCCNCCO)ccc(NCCNCCO)c21`, the T/C (endpoint: median tumor weight (est.), dose: 0.25 mg/kg/injection, schedule: Q02DX011 (ip), vehicle: water, higher = larger tumour) was 97 % of control; the T/C (endpoint: median tumor weight (est.), dose: 1.0 mg/kg/injection, schedule: Q02DX011 (ip), vehicle: water, higher = larger tumour) is 31 % of control and 38 % of control; the T/C (endpoint: median tumor weight (est.), dose: 2.0 mg/kg/injection, schedule: Q02DX011 (ip), vehicle: water, higher = larger tumour) was 4 % of control.

As to `COc1cc(/C=C2\SC(=S)N(c3ccc(Cl)c(Cl)c3)C2=O)ccc1O`, the T/C is, setting by setting: under setting [1], 90 % of control; under setting [2], 94 % of control; under setting [3], 105 % of control; under setting [4], 117 % of control.

With `COC(=O)C[C@](O)(CCCC(C)(C)O)C(=O)O[C@@H]1C(OC)=C[C@]23CCCN2CCc2cc4c(cc2[C@H]13)OCO4`, the T/C is 114 % of control (endpoint: mean tumor weight, dose: 0.5 mg/kg/injection, schedule: Q02DX011 (ip), vehicle: saline, higher = larger tumour); 37 % of control (endpoint: mean tumor weight, dose: 2.0 mg/kg/injection, schedule: Q02DX011 (ip), vehicle: saline, higher = larger tumour); 77 % of control (endpoint: median tumor weight (est.), dose: 0.5 mg/kg/injection, schedule: Q02DX011 (ip), vehicle: saline, higher = larger tumour); 34 % of control (endpoint: median tumor weight (est.), dose: 2.0 mg/kg/injection, schedule: Q02DX011 (ip), vehicle: saline, higher = larger tumour).

In the case of `Cn1c2c(c(=O)n(C)c1=O)CS(=O)c1ccccc1N2` (configuration not stated), the T/C by setting is: under setting [1], 103 % of control; under setting [2], 106 % of control; under setting [5], 109 % of control; under setting [3], 65 % of control; under setting [4], 61 % of control; under setting [6], 83 % of control.

As to `CC(=O)Nc1ccc(S(=O)(=O)NNC(=O)C(=O)Nc2cccc(Cl)c2)cc1`, the T/C is 105 % of control under setting [1]; 98 % of control under setting [2]; 86 % of control under setting [5]; 113 % of control under setting [3]; 108 % of control under setting [4]; 92 % of control under setting [6].

Regarding `Nc1nc(N)c2c(ccc3nccc32)[nH]1`, the T/C was 86 % of control (endpoint: median survival time, dose: 12.5 mg/kg/injection, schedule: Q01DX009 (ip), vehicle: saline with Tween-80, higher = longer survival); 92 % of control (endpoint: median survival time, dose: 25.0 mg/kg/injection, schedule: Q01DX009 (ip), vehicle: saline with Tween-80, higher = longer survival); 80 % of control (endpoint: median tumor weight (est.), dose: 12.5 mg/kg/injection, schedule: Q01DX009 (ip), vehicle: saline with Tween-80, higher = larger tumour); 62 % of control (endpoint: median tumor weight (est.), dose: 25.0 mg/kg/injection, schedule: Q01DX009 (ip), vehicle: saline with Tween-80, higher = larger tumour).

In the case of `O=C1NC2(CCCCC2)C(=O)N1CCN(CCCl)CCCl`, under “endpoint: median tumor weight (est.), dose: 16.0 mg/kg/injection, schedule: Q01DX009 (ip), vehicle: saline with Tween-80, higher = larger tumour”, the T/C is 10 % of control.

Consider `Nc1n[n+](-c2ccc(Cl)cc2)no1`, for which the T/C is, setting by setting: (endpoint: median survival time, dose: 25.0 mg/kg/injection, schedule: Q04DX003 (ip), vehicle: water, higher = longer survival) 99 % of control; (endpoint: median survival time, dose: 50.0 mg/kg/injection, schedule: Q04DX003 (ip), vehicle: water, higher = longer survival) 100 % of control.

Turning to `CSC1SCC2C(=O)N(C)C(C(C)C)C(=O)OCC(NC(=O)c3cnc4ccccc4n3)C(=O)NC(C)C(=O)N(C)C1C(=O)N(C)C(C(C)C)C(=O)OCC(NC(=O)c1cnc3ccccc3n1)C(=O)NC(C)C(=O)N2C` (configuration not stated), the T/C (endpoint: median survival time, dose: 0.06 mg/kg/injection, schedule: Q04DX003 (ip), vehicle: saline with Tween-80, higher = longer survival) was 96 % of control and the T/C (endpoint: median survival time, dose: 0.12 mg/kg/injection, schedule: Q04DX003 (ip), vehicle: saline with Tween-80, higher = longer survival) is 91 % of control.

In the case of `O=C1C=CN(C2OC(CO)C(O)C2O)C(=O)C1` (configuration not stated), the T/C runs as follows: (endpoint: mean tumor weight, dose: 150.0 mg/kg/injection, schedule: Q02DX011 (ip), vehicle: saline, higher = larger tumour) 42 % of control and 46 % of control; (endpoint: mean tumor weight, dose: 300.0 mg/kg/injection, schedule: Q02DX011 (ip), vehicle: saline, higher = larger tumour) 44 % of control and 51 % of control; (endpoint: median tumor weight (est.), dose: 75.0 mg/kg/injection, schedule: Q02DX011 (ip), vehicle: saline, higher = larger tumour) 78 % of control and 82 % of control; (endpoint: median tumor weight (est.), dose: 150.0 mg/kg/injection, schedule: Q02DX011 (ip), vehicle: saline, higher = larger tumour) 43 % of control and 48 % of control; (endpoint: median tumor weight (est.), dose: 300.0 mg/kg/injection, schedule: Q02DX011 (ip), vehicle: saline, higher = larger tumour) 38 % of control and 46 % of control.

In the case of `O=C1/C(=C/c2cccc([N+](=O)[O-])c2)SC(=S)N1C1CC1`, the T/C is, setting by setting: under setting [1], 94 % of control; under setting [2], 94 % of control; under setting [5], 89 % of control; under setting [3], 100 % of control; under setting [4], 97 % of control.

These data come from PubChem BioAssay AID288 (DTP/NCI, 2004).
